Experimental data as given in patent US20240368192A1, “Nitrogen-Containing Heterocyclic Compound, and Preparation Method Therefor, Intermediate Thereof, and Application Thereof” (Shanghai Allist Pharmaceuticals Co., Ltd., priority 2021, published 2024).
Where a name gives a salt, the structure may show the parent alone.

Assays:
[1] = target: Ba/F3 KRAS-G12V cells (Homo sapiens, UniProt P01116, G12V, cells depend on it); experiment: Proliferation inhibitory activity on Ba/F3 KRAS-G12V stably transfected cell line (CellTiter-Glo, 72 hours); format: cell-based, mouse; conditions: read-out: Ba/F3 KRAS-G12V IC50
Chain of Ba/F3 KRAS-G12V cells (P01116 whole entry G12V): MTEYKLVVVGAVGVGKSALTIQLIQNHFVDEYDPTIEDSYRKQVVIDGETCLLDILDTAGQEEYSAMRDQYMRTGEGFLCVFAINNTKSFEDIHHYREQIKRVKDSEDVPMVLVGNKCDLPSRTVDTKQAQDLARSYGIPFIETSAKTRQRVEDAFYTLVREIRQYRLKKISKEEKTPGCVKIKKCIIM
Description: (§1) Test Example 1: Proliferation Inhibitory Activity on Ba/F3 KRAS-G12D, Ba/F3 KRAS-G12V Stably Transfected Cell Lines and AGS Tumor Cell Lines Containing KRAS G12D Mutations
(§2) To determine the proliferation inhibitory activity of the compounds in vitro on mouse pro-B cells Ba/F3 (Ba/F3 KRAS-G12D and Ba/F3 KRAS-G12V cells stably expressing KRAS G12D/V mutant proteins) and gastric cancer AGS cells expressing KRAS G12D mutant protein.
(§3) Cell sources. Ba/F3 KRAS-G12D and Ba/F3 KRAS-G12V were purchased from Kyinno Biotech (Beijing) Co., Ltd, Cat. No.: KC-1259 and KC-1261, respectively; AGS was purchased from Shanghai Bioleaf Biotech Co., Ltd.
(§4) Cells in the logarithmic growth phase were seeded in a 96-well plate (8000, 8000, 4000 cells/well, 90 μL/well for Ba/F3 KRAS-G12D, Ba/F3 KRAS-G12V, and AGS cells respectively), incubated at 37° C. for 1 day with 5% CO2, and then a gradient dilution of the test compound was added thereto (compounds 1 to 28 and comparative compounds). The details were as follows, the compound stock solution (10 mM) previously dissolved in DMSO was diluted to 10 gradient concentrations at a fold ratio (4 fold) and diluted to 10 fold of the target concentration in another 96-well plate with culture medium, and then 10 μL/well of the compound solution was added to the 96-well plate seeded with cells to reach the target concentration (10000, 2500, 625, 156, 39, 10, 2.5, 0.6, 0.15, 0.04 nM). Each concentration was provided with 3 duplicate wells and a blank control. After continued incubation at 37° C. and 5% CO2 for 72 hours, 50 μL of CellTiter-Glo*2.0 reagent (luciferase ATP bioluminescence detection reagent, purchased from Promega, Cat. No.: G9243) was added to each well, shaken for 2 minutes, and incubated at room temperature for 8 minutes, and then fluorescence luminescence intensity was detected (light collection time was 100 ms). The inhibitory rate of compounds with various concentrations on cell proliferation was calculated. Cell proliferation inhibition rate (%)=[(luminous intensitycontrol group containing cell culture medium for 72 hour−luminous intensitycompound group for 72 hour)/(luminous intensitycontrol group containing cell culture medium for 72 hours−luminous intensitycontrol group without cell culture medium for 72 hour)]×100%. GraphPad Prism 8.3 software was used to analyze the data, and nonlinear S-curve regression was used to fit the data to obtain a dose-effect curve, from which the IC50 value was calculated.

[2] = target: Ba/F3 KRAS-G12D cells (Homo sapiens, UniProt P01116, G12D, cells depend on it); experiment: Proliferation inhibitory activity on Ba/F3 KRAS-G12D stably transfected cell line (CellTiter-Glo, 72 hours); format: cell-based, mouse; conditions: read-out: Ba/F3 KRAS-G12D IC50
Chain of Ba/F3 KRAS-G12D cells (P01116 whole entry G12D): as the sequence (P01116 whole entry G12V) above, with V12D counted along it
Description: as §1, §2, §3, §4

[3] = system: AGS cells; experiment: Proliferation inhibitory activity on AGS tumor cell line containing KRAS G12D mutation (CellTiter-Glo, 72 hours); format: cell-based; conditions: Homo sapiens
Description: as §1, §2, §3, §4

GI50 [1] [µM] | GI50 [2] [µM] | Structure (SMILES) | IC50 [3] [µM]
5 to 10 | – | Cc1cc(N)nc(-c2ncc3c(N4C[C@@H](N)C[C@H](O)C4)nc(OC[C@@]45CCCN4C[C@H](F)C5)nc3c2F)c1C(F)(F)F [Compound 1, (3S,5S)-5-Amino-1-(7-(6-amino-4-methyl-3-(trifluoromethyl)pyridin-2-yl)-8-fluoro-2-(((2R,7aS)-2-fluorohexahydro-1H-pyrrolizin-7a-yl)methoxy)pyrido[4,3-d]pyrimidin-4-yl)piperidin-3-ol bis(2,2,2-trifluoroacetate)] | –
5 to 10 | – | Cc1cc(N)nc(-c2ncc3c(N4CCC[C@H](N)C4)nc(OC[C@@]45CCCN4C[C@H](F)C5)nc3c2F)c1C(F)(F)F [Compound 2, 6-(4-((S)-3-Aminopiperidin-1-yl)-8-fluoro-2-(((2R,7aS)-2-fluorohexahydro-1H-pyrrolizin-7a-yl)methoxy)pyrido[4,3-d]pyrimidin-7-yl)-4-methyl-5-(trifluoromethyl)pyridin-2-amine tetrakis(2,2,2-trifluoroacetate)] | –
5 to 10 | – | N[C@H]1CCCN(c2nc(OC[C@@]34CCCN3C[C@H](F)C4)nc3c(F)c(-c4cc(O)cc5ccccc45)ncc23)C1 [Compound 3, 4-(4-((S)-3-Aminopiperidin-1-yl)-8-fluoro-2-(((2R,7aS)-2-fluorohexahydro-1H-pyrrolizin-7a-yl)methoxy)pyrido[4,3-d]pyrimidin-7-yl)naphthalen-2-ol] | –
5 to 10 | – | N[C@H]1C[C@H](O)CN(c2nc(OC[C@@]34CCCN3C[C@H](F)C4)nc3c(F)c(-c4cc(O)cc5ccccc45)ncc23)C1 [Compound 4, (3S,5S)-5-Amino-1-(8-fluoro-2-(((2R,7aS)-2-fluorohexahydro-1H-pyrrolizin-7a-yl)methoxy)-7-(3-hydroxynaphthalen-1-yl)pyrido[4,3-d]pyrimidin-4-yl)piperidin-3-ol] | –
5 to 10 | – | N[C@@H]1CCCN(c2nc(OC[C@@]34CCCN3C[C@H](F)C4)nc3c(F)c(-c4cc(O)cc5ccccc45)ncc23)C1 [Compound 5, 4-(4-((R)-3-Aminopiperidin-1-yl)-8-fluoro-2-(((2R,7aS)-2-fluorohexahydro-1H-pyrrolizin-7a-yl)methoxy)pyrido[4,3-d]pyrimidin-7-yl)naphthalen-2-ol] | –
5 to 10 | 5 to 10 | C#Cc1c(F)ccc2cc(O)cc(-c3ncc4c(N5CCC[C@H](N)C5)nc(OC[C@@]56CCCN5C[C@H](F)C6)nc4c3F)c12 [Compound 7, 4-(4-((S)-3-Aminopiperidin-1-yl)-8-fluoro-2-(((2R,7aS)-2-fluorohexahydro-1H-pyrrolizin-7a-yl)methoxy)pyrido[4,3-d]pyrimidin-7-yl)-5-ethynyl-6-fluoronaphthalen-2-ol] | –
5 to 10 | – | C#Cc1c(F)ccc2cc(O)cc(-c3ncc4c(N5C[C@@H](N)C[C@H](O)C5)nc(OC[C@@]56CCCN5C[C@H](F)C6)nc4c3F)c12 [Compound 8, (3S,5S)-5-Amino-1-(7-(8-ethynyl-7-fluoro-3-hydroxynaphthalen-1-yl)-8-fluoro-2-(((2R,7aS)-2-fluorohexahydro-1H-pyrrolizin-7a-yl)methoxy)pyrido[4,3-d]pyrimidin-4-yl)piperidin-3-ol] | –
5 to 10 | 5 to 10 | C#Cc1c(F)ccc2cc(O)cc(-c3ncc4c(N5C[C@@H]6C[C@]6(N)C5)nc(OC[C@@]56CCCN5C[C@H](F)C6)nc4c3F)c12 [Compound 9, 4-(4-((1R,5S)-1-Amino-3-azabicyclo[3.1.0]hexan-3-yl)-8-fluoro-2-(((2R,7aS)-2-fluorohexahydro-1H-pyrrolizin-7a-yl)methoxy)pyrido[4,3-d]pyrimidin-7-yl)-5-ethynyl-6-fluoronaphthalen-2-ol] | –
5 to 10 | – | C#Cc1c(F)ccc2cc(O)cc(-c3ncc4c(N5C[C@@H]6[C@@H](N)[C@@H]6C5)nc(OC[C@@]56CCCN5C[C@H](F)C6)nc4c3F)c12 [Compound 11, 4-(4-((1R,5S,6R)-6-Amino-3-azabicyclo[3.1.0]hexan-3-yl)-8-fluoro-2-(((2R,7aS)-2-fluorohexahydro-1H-pyrrolizin-7a-yl)methoxy)pyrido[4,3-d]pyrimidin-7-yl)-5-ethynyl-6-fluoronaphthalen-2-ol dihydrochloride] | –
5 to 10 | – | C#Cc1c(F)ccc2cc(O)cc(-c3ncc4c(N5C[C@@H]6[C@H](N)[C@@H]6C5)nc(OC[C@@]56CCCN5C[C@H](F)C6)nc4c3F)c12 [Compound 12, 4-(4-((1R,5S,6S)-6-Amino-3-azabicyclo[3.1.0]hexan-3-yl)-8-fluoro-2-(((2R,7aS)-2-fluorohexahydro-1H-pyrrolizin-7a-yl)methoxy)pyrido[4,3-d]pyrimidin-7-yl)-5-ethynyl-6-fluoronaphthalen-2-ol bis(2,2,2-trifluoroacetate)] | –
5 to 10 | – | C#Cc1c(F)ccc2cc(O)cc(-c3ncc4c(N5C[C@H](N)C[C@H](O)C5)nc(OC[C@@]56CCCN5C[C@H](F)C6)nc4c3F)c12 [Compound 13, (3S,5R)-5-Amino-1-(7-(8-ethynyl-7-fluoro-3-hydroxynaphthalen-1-yl)-8-fluoro-2-(((2R,7aS)-2-fluorohexahydro-1H-pyrrolizin-7a-yl)methoxy)pyrido[4,3-d]pyrimidin-4-yl)piperidin-3-ol] | –
5 to 10 | – | C#Cc1c(F)ccc2cc(O)cc(-c3ncc4c(N5C[C@H](N)C[C@@H](O)C5)nc(OC[C@@]56CCCN5C[C@H](F)C6)nc4c3F)c12 [Compound 14, (3R,5R)-5-Amino-1-(7-(8-ethynyl-7-fluoro-3-hydroxynaphthalen-1-yl)-8-fluoro-2-(((2R,7aS)-2-fluorohexahydro-1H-pyrrolizin-7a-yl)methoxy)pyrido[4,3-d]pyrimidin-4-yl)piperidin-3-ol bis(2,2,2-trifluoroacetate)] | –
5 to 10 | 5 to 10 | C#Cc1c(F)ccc2cc(O)cc(-c3ncc4c(N5CC[C@H](N)C5)nc(OC[C@@]56CCCN5C[C@H](F)C6)nc4c3F)c12 [Compound 15, 4-(4-((S)-3-Aminopyrrolidin-1-yl)-8-fluoro-2-(((2R,7aS)-2-fluorohexahydro-1H-pyrrolizin-7a-yl)methoxy)pyrido[4,3-d]pyrimidin-7-yl)-5-ethynyl-6-fluoronaphthalen-2-ol] | –
5 to 10 | – | C#Cc1c(F)ccc2cc(O)cc(-c3ncc4c(N5C[C@@H](N)C[C@@H](O)C5)nc(OC[C@@]56CCCN5C[C@H](F)C6)nc4c3F)c12 [Compound 16, (3R,5S)-5-Amino-1-(7-(8-ethynyl-7-fluoro-3-hydroxynaphthalen-1-yl)-8-fluoro-2-(((2R,7aS)-2-fluorohexahydro-1H-pyrrolizin-7a-yl)methoxy)pyrido[4,3-d]pyrimidin-4-yl)piperidin-3-ol bis(2,2,2-trifluoroacetate)] | –
5 to 10 | – | Cc1cc(N)nc(-c2nc(N)c3c(N4C[C@H]5CC[C@@H](C4)N5)nc(OC[C@@]45CCCN4C[C@H](F)C5)nc3c2F)c1C(F)(F)F [Compound 19, 7-(6-Amino-4-methyl-3-(trifluoromethyl)pyridin-2-yl)-4-((1R,5S)-3,8-diazabicyclo[3.2.1]octan-3-yl)-8-fluoro-2-(((2R,7aS)-2-fluorohexahydro-1H-pyrrolizin-7a-yl)methoxy)pyrido[4,3-d]pyrimidin-5-amine] | –

Structure (SMILES) | GI50 [1] [µM] | GI50 [2] [µM] | IC50 [3] [µM]
C#Cc1c(F)ccc2cc(O)cc(-c3ncc4c(C5=C[C@@H]6CC[C@H](C5)N6)nc(OC[C@@]56CCCN5C[C@H](F)C6)nc4c3F)c12 [Compound 23, 4-(4-((1R,5S)-8-Azabicyclo[3.2.1]oct-3-en-3-yl)-8-fluoro-2-(((2R,7aS)-2-fluorohexahydro-1H-pyrrolizin-7a-yl)methoxy)pyrido[4,3-d]pyrimidin-7-yl)-5-ethynyl-6-fluoronaphthalen-2-ol] | 5 to 10 | – | 2.5
[2H]C([2H])(Oc1nc(N2C[C@H]3CC[C@@H](C2)N3)c2c(Cl)nc(-c3cc(O)cc4ccc(F)c(C#C)c34)c(F)c2n1)[C@@]12CCCN1C[C@H](F)C2 [Compound 27, 4-(4-((1R,5S)-3,8-Diazabicyclo[3.2.1]octan-3-yl)-5-chloro-8-fluoro-2-(((2R,7aS)-2-fluorotetrahydro-1H-pyrrolizin-7a(5H)-yl)methoxy-d2)pyrido[4,3-d]pyrimidin-7-yl)-5-ethynyl-6-fluoronaphthalen-2-ol] | – | 0.001 | 0.006
